Laboratory results reported in patent publication US20220177485A1, “CAMPTOTHECIN DERIVATIVE, PREPARATION METHOD THEREFOR AND APPLICATION THEREOF” (MARINE BIOMEDICAL RESEARCH INSTITUTE OF QINGDAO CO., LTD., priority 2018, published 2022).
Several values for one entry are separate records, joined by “and”; a condition that tells them apart may be missing. Equal entries are not always repeated. Where two headings read alike, the source gives them in different places. Marks after values point to notes of the source that are not given here.

Tests used:
[1] = tested on: HCT-116 transplanted tumors; settings: for Inhibitory rate: day 23; for Tumor volume size: day 23, x ± SE
Protocol: Digesting collecting cells after the desired amount of cells. Diluting the cells into 250 million/ml cell suspension with 5 A culture medium containing 10% fetal bovine serum. […] Stay around tumor growth to 1 g tissue block, cutting short diameter growth of around 1 mm plaque, by inserting a catheter method. […] Compound of low dose group and high dose group were given by gavages once a week, respectively. The group of irinotecan and 5-fluorouracil were treated by intravenous every three days. Recording changes in body weight in mice, and tumors size three times a week.

[2] = tested on: NCI-H1975 cells (non-small cell lung adenocarcinoma cancer cell); experiment: growth inhibition of tumor cells in vitro, NCI-H1975; assay type: cell-based; settings: Homo sapiens
Excerpt: (§1) We tested compounds target a variety of tumor cell for the growth inhibition to show its antitumor activity by using the method of the field technicians known. Chooses the tumor cell lines include: A549 cell non-small cell lung cancer cell line (people), K562 cells (human chronic myeloid leukemia cells), NCI-H1975 cells (non-small cell lung adenocarcinoma cancer cell), MDA-MB-231 cells (human breast cancer cells) and HCT-116 cells (human colon cancer cells).

[3] = tested on: MDA-MB-231 cells (human breast cancer cells); experiment: growth inhibition of tumor cells in vitro, MDA-MB-231; assay type: cell-based; settings: Homo sapiens
Excerpt: as §1

[4] = biological target: heat shock protein (HSP90); experiment: macromolecular interaction on chip, HSP90; assay type: binding; settings: compound fixed on the chip; HSP90 100 nM
Protocol: (§2) The experimental scheme: 1. Fixed the compounds on the chip:
(§3) Mobile phase were EGF (1 μM), FGF (1 μM), HSP90 (100 nM), FKBP12 (100 nM).
(§4) Detection whether small molecule compounds combined with the provided protein of heat shock protein (HSP90), epidermal growth factor (EGF) and fibroblast growth factor (FGF); and provide relevant data of combined dynamics.

[5] = biological target: T1, epidermal growth factor (EGF) (Homo sapiens, UniProt P01133); experiment: macromolecular interaction on chip, EGF; assay type: binding; settings: for KD EGF: compound fixed on the chip, EGF 1 μM
T1 construct: epidermal growth factor (EGF)
Protocol: as §2, §3, §4

[6] = biological target: fibroblast growth factor (FGF); experiment: macromolecular interaction on chip, FGF; assay type: binding; settings: compound fixed on the chip; FGF 1 μM
Protocol: as §2, §3, §4

[7] = tested on: HCT-116 cells (human colon cancer cells); experiment: cells; assay type: cell-based; settings: for IC50: Homo sapiens
Excerpt: as §1

[8] = tested on: A549 lung transplantation tumor model and RM-1 (prostate) transplantation tumor model; experiment: antitumor activity in vivo, transplanted tumor models in kunming mice; settings: intraperitoneal injection
Protocol: Using the known in the field of technology, the antitumor activity of compounds in vivo was tested in kunming mice transplanted tumor model. The transplantation tumor models tested including A549 lung transplantation tumor model and RM-1 (prostate) transplantation tumor model. We conducted the tests by intraperitoneal injection.

[9] = tested on: K562 cells (human chronic myeloid leukemia cells); experiment: growth inhibition of tumor cells in vitro, K562; assay type: cell-based; settings: K562 cell line, read-out: IC50 K562
Excerpt: as §1

[10] = tested on: A549 cell non-small cell lung cancer cell line; experiment: growth inhibition of tumor cells in vitro, A549; assay type: cell-based, human; settings: Homo sapiens, A549, A549 cell line; read-out: IC50 A549
Excerpt: as §1

[11] = 20 mg/kg intravenous every three days
[12] = NCI-H1975 cell line, read-out: IC50 NCI-H1975
[13] = MDA-MB-231 cell line, read-out: IC50 MDA-MB-231
[14] = HCT-116 cell line, read-out: IC50 HCT-116
[15] = NCI-H1975, read-out: IC50 NCI-H1975
[16] = MDA-MB-231, read-out: IC50 MDA-MB-231
[17] = HCT-116, read-out: IC50 HCT-116

T1 sequence (P01133 971-1023 limits assumed, species assumed): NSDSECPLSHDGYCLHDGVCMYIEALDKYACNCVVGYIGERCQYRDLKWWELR

Row | SMILES | IC50 [2, 12] [nM] | IC50 [3, 13] [nM] | KD HSP90 [4] | KD EGF [5] | KD FGF [6] | IC50 [7, 14] [nM] | antitumor activity in vivo compared with topotecan [8] | other results
1 | O=c1[nH]cc(F)c(=O)[nH]1 [5 - fluorouracil, 5-fluorouracil, reference compound] |  |  |  |  |  |  |  | Inhibitory rate [1, 11]: 55.64^a %; Tumor volume size [1, 11]: 342.28 ± 128.00^a mm^3
2 | CCc1c2c(nc3ccc(OC(=O)N4CCC(N5CCCCC5)CC4)cc13)-c1cc3c(c(=O)n1C2)COC(=O)[C@]3(O)CC [Irinotecan, reference compound] |  |  |  |  |  |  |  | Inhibitory rate ([1]; 6 mg/kg intravenous every three days): 78.12^a %
3 | CC[C@@]1(O)C(=O)OCc2c1cc1n(c2=O)Cc2c-1nc1cc3c(cc1c2-c1ccsc1)OCO3 [Compound 24, 20(S)-7-(thiophene-3-yl)-10,11-methylenedioxy-camptothecin] | 16.2 ± 0.83 | 1.93 ± 0.26 | No combination | No combination | No combination | 0.21 ± 0.02 |  | ranking of cytotoxic activity in HCT-116 [7]: best cytotoxic activity
4 | CC[C@@]1(O)C(=O)OCc2c1cc1n(c2=O)Cc2c-1nc1cc3c(cc1c2-c1ccoc1)OCO3 [Compound 23, 20(S)-7-(furan-3-yl)-10,11-methylenedioxy-camptothecin] | 95.5 ± 5.57 | 83.8 ± 6.64 | No combination | No combination | No combination | 2.97 ± 0.25 | better than that of topotecan | mice weight change ([1]; high and low dose group, weight returned after 10 days but still lower than control): declined; Tumor volume size ([1]; high dose 5 mg/kg, gavage once a week): 19.94 ± 2.17*^a mm^3; Inhibitory rate ([1]; high dose 5 mg/kg, gavage once a week, 5 mg/kg): 87.04% and 95.45^a %; Tumor volume size ([1]; low dose 2.5 mg/kg, gavage once a week): 100.52 ± 20.45*^a mm^3; Inhibitory rate ([1]; low dose 2.5 mg/kg, gavage once a week, 2.5 mg/kg): 95.45% and 87.04^a %
5 | CC[C@@]1(O)C(=O)OCc2c1cc1n(c2=O)Cc2c-1nc1cc3c(cc1c2CCc1ccccc1N1CCOCC1)OCO3 [Compound 15] |  |  |  |  |  |  | better than that of topotecan | melting point: > 250 °C
6 | CC[C@@]1(O)C(=O)OCc2c1cc1n(c2=O)Cc2c-1nc1cc3c(cc1c2-c1cnn(C)c1)OCO3 [Compound 25, 20(S)-7-(1-methyl-1H-pyrazol-4-yl)-10,11-methylenedioxy-camptothecin] | 35.2 ± 3.15 | 3.76 ± 1.08 | No combination | No combination | No combination | 0.34 ± 0.06 |  | 
7 | CC[C@@]1(O)C(=O)OCc2c1cc1n(c2=O)Cc2c-1nc1cc3c(cc1c2-c1ccco1)OCO3 [Compound 27, 20(S)-7-(furan-2-yl)-10,11-methylenedioxy-camptothecin] |  |  |  |  |  |  |  | IC50 [2, 15]: 4.53 ± 0.16 nM; IC50 [3, 16]: 1.79 ± 0.14 nM; IC50 [7, 17]: 0.25 ± 0.01 nM
8 | CC[C@@]1(O)C(=O)OCc2c1cc1n(c2=O)Cc2c-1nc1cc3c(cc1c2CCc1ccc(N2CCCC2)c(F)c1)OCO3 [Compound 11, 20(S)-7-(3-fluoro-4-(pyrrolidin-1-yl))-10,11-methylenedioxy-camptothecin] |  |  |  |  |  |  | better than that of topotecan | melting point: > 250 °C; IC50 [9]: 305 ± 8.75 nM
9 | CC[C@@]1(O)C(=O)OCc2c1cc1n(c2=O)Cc2c-1nc1cc3c(cc1c2CCN1CCOCC1)OCO3 [Compound 51, 20(S)-7-(2-morpholinoethyl)-10,11-methylenedioxy-camptothecin] |  |  | No combination | can combine | can combine |  | better than that of topotecan | IC50 [9]: 13 ± 3.25 nM; Kd [5]: 4.15 nM; Kd [6]: 46 nM
10 | CC[C@@]1(O)C(=O)OCc2c1cc1n(c2=O)Cc2cc3c(CN(C)C)c(O)ccc3nc2-1 [Topotecan, reference compound] | > 500 | 123 ± 18.2 | No combination | No combination | No combination | > 500 |  | IC50 [9]: 636 ± 8.95 nM; IC50 [10]: 559 ± 8.6 nM
11 | CC[C@@]1(O)C(=O)OCc2c1cc1n(c2=O)Cc2c-1nc1cc3c(cc1c2-c1ccncc1)OCO3 [Compound 21, 20(S)-7-(pyridin-4-yl)-10,11-methylenedioxy-camptothecin] |  |  | No combination | can combine | can combine |  |  | IC50 [2, 15]: 20.4 ± 3.65 nM; IC50 [3, 16]: 4.92 ± 0.36 nM; Kd [5]: 49.3 nM; Kd [6]: 18.9 nM; IC50 [7, 17]: 0.74 ± 0.07 nM
12 | CC[C@@]1(O)C(=O)OCc2c1cc1n(c2=O)Cc2c-1nc1cc3c(cc1c2-c1ccc2[nH]ccc2c1)OCO3 [Compound 29] |  |  |  |  |  |  |  | IC50 [2, 15]: 79.7 ± 3.52 nM; IC50 [3, 16]: 7.98 ± 0.72 nM; IC50 [7, 17]: 1.84 ± 0.11 nM
